Data on 1 substance can be found in paper PMC10154249, “Unique progerin C-terminal peptide ameliorates Hutchinson–Gilford progeria syndrome phenotype by rescuing BUBR1” (Nature Aging, 2023).

One assay deals with HGADFN167 cells. The assay can be described thus: SA-β-gal staining of HGADFN167 cells. The assay is classed as cell-based, human. The method, then:
SA-β-gal staining was performed as previously described. Cells were fixed in 0.5% glutaraldehyde for 15 min at room temperature, washed three times with PBS (pH 6.0) containing 1 mM MgCl2 and exposed overnight 37 °C to containing 1 mg ml^–1 5-bromo-4-chloro-3-indolyl-β-D-galactopyranoside (MCE, catalog no. HY-15934), 0.12 mM potassium ferrocyanide (Sigma, catalog no. P3289), 0.12 mM potassium ferricyanide (Sigma, catalog no. P8131) and 1 mM MgCl2 PBS buffer (pH 6.0). Cells were washed three times with H2O and observed under a microscope (OLYMPUS CKX53). SA-β-gal positive cells were quantified by investigators who were blinded to the identity of the analyzed cell.

The subject of another assay is Lmna^G609G/G609G mice. Nature of the assay: Bodyweight of Lmna^G609G/G609G mice. The settings on record: 20 mg kg^–1 i.p. every other day from 14 days of age. It is filed as in vivo, mouse. From the text:
All animal experiments were approved by the Ethics Committee of School of Life Sciences, Northeast Normal University, China (AP20191011) and carried out in accordance with the relevant guidelines: National Standards of the People’s Republic of China (GB/T 35892–2018), Laboratory Animal—Guideline for Ethical Review of Animal Welfare. We generated a mouse model (ICR background), carrying the Lmna^G609G using the BE4-Gam system. The protocols for the BE4-Gam system and microinjection of pronuclear-stage embryos have been described in detail previously[37],[38],[59]. Briefly, a mixture of BE4-Gam mRNA (200 ng μl^–1) and sgRNA-Lmna (30 ng μl^–1) was coinjected into the cytoplasm of pronuclear-stage embryos of the mouse. The injected embryos were transferred to embryo culture medium for 30–60 min, followed by transferring the injected embryos into the recipient mother. The embryos continued to develop and the founder mice (referred to as F0) were born: wild-type mice (Lmna^+/+), heterozygous mice (Lmna^G609G/+) and homozygous mice (Lmna^G609G/G609G). […]
For UPCP injection, 14-day-old Lmna^G609G/G609G mice were injected intraperitoneally with either PBS or UPCP (20 mg kg^–1, every other day) and wild-type mice were injected with PBS. […] Bodyweight and lifespan were monitored after UPCP treatment. The survival rate was analyzed by the Kaplan–Meier method. […]

The test system of assay [1] is esophagus of Lmna^G609G/G609G mice. Nature of the assay: Masson staining of esophagus (lamina propria). It is filed as in vivo, mouse. The settings on record: 13 weeks; for aortic adventitia, mean / aortic adventitia: 20 mg kg^–1 i.p. The method, then: For UPCP injection, 14-day-old Lmna^G609G/G609G mice were injected intraperitoneally with either PBS or UPCP (20 mg kg^–1, every other day) and wild-type mice were injected with PBS. […] Bodyweight and lifespan were monitored after UPCP treatment. The survival rate was analyzed by the Kaplan–Meier method. We only included mice that were of sufficient bodyweight at the start of the experiment, typically at least 80% of the average littermate weight of the same sex and genotype. All animals meeting criteria for inclusion were then divided randomly into three groups according to genotype (Lmna^+/+, Lmna^G609G/G609G-Mock and Lmna^G609G/G609G-UPCP).
For histological analyses, mice of the indicated genotypes were perfused with PBS, then with 4% paraformaldehyde (PFA). Whole organs were incubated in 4% PFA at 4 °C for 16 h. All samples were paraffin embedded and sectioning by Servicebio. Subsequently, the tissues were deparaffinized and rehydrated before hematoxylin-eosin (HE) or Masson staining or immunohistochemistry (IHC). HE staining was performed using an HE Kit (Absin, catalog no. abs9217), and Masson staining was performed using Masson’s Trichrome Stain Kit (Absin, catalog no. abs9347) according to the manufacturer’s instructions. The thickness of the layers or the areas of fibrosis in the tissues were calculated using ImageJ software by a blinded investigator. For IHC, the sections were completed by the Servicebio. The images were acquired by a microscope (Leica DMi8) and analyzed with Leica Application Suite X v.3.6.0.24 (Leica). For BubR1, cytoplasmic staining in cells was scored on the intensity of staining and the proportion of positive cells by a blinded investigator. The intensity of the staining was graded as 0 (negative, no color), 1 (low positive, light yellow), 2 (positive, brown yellow) or 3 (high positive, brown), and the number of positive cells was graded as 0 (<5%), 1 (5–25%), 2 (25–50%), 3 (51–75%) or 4 (>75%). The final score was defined as staining number score multiplied by staining color score. For lamin B1, p21 or IL-6, the proportion of positive cells was used to quantify the expression of protein in tissues by a blinded investigator.

The mark [2] stands for this setting: 20 mg kg^–1 i.p. every other day.

Consider “H-YGRKKRRQRRRYNLRSRTVLCGTCGQPADKASASGSGAQSPQNCSIM-OH (cysteines drawn unpaired) [UPCP, unique progerin C-terminal peptide]”, for which the SA-β-gal positive cells is 24% in the assay on HGADFN167 cells (HGADFN167, replicate 1); 26% in the assay on HGADFN167 cells (HGADFN167, replicate 2); 20% in the assay on HGADFN167 cells (HGADFN167, replicate 3). In addition, the “bodyweight, female” value in the assay with Lmna^G609G/G609G mice (female) is on record as “slow down the bodyweight loss”. Further, the “bodyweight, male” value in the assay on Lmna^G609G/G609G mice (male) is “increase the bodyweight”. Moreover, the “fibrosis of lamina propria, esophagus” value in assay [1] (setting [2]) is “reduced fibrosis of lamina propria in the esophagus and heart”. In addition, in assay [1] (setting [2]), the “thickness of lamina propria, esophagus” value is on record as “decreased the thickness of the lamina propria in the esophagus”. Also, the “aortic adventitia, mean” value is recorded as 9.139 μm in assay [1] (sample 1, mean of 3 measurements); 9.054 μm in assay [1] (sample 2, mean of 3 measurements); 10.936 μm in assay [1] (sample 3, mean of 3 measurements). Moreover, the aortic adventitia in assay [1] (sample 1, measurement 1) stood at 9.452 μm; in assay [1] (sample 1, measurement 2) it was 8.478 μm; in assay [1] (sample 1, measurement 3), 9.488 μm; in assay [1] (sample 2, measurement 1), 9.392 μm; in assay [1] (sample 2, measurement 2) it was 8.624 μm; in assay [1] (sample 2, measurement 3), 9.147 μm. For the same substance, the aortic adventitia in assay [1] (sample 3, measurement 1) amounted to 10.5409 μm; in assay [1] (sample 3, measurement 2), 9.16 μm; in assay [1] (sample 3, measurement 3), 13.1073 μm.
